Like-named read-outs stand apart in the source and are kept apart here.
Assays:
human liver microsomes = assay: Isoflavone glucuronidation assay, human liver microsomes; format: in vitro ADME; conditions: pooled human liver microsomes (n=48)
[1] = as above; format: in vitro ADME; conditions: human, pH 7.5
[2] = tested on: liver microsomes from 13 different species; assay: Isoflavone glucuronidation by liver microsomes from 13 different species; format: in vitro ADME, 13 species
[3] = Isoflavone glucuronidation assay, cat liver microsomes; format: in vitro ADME; conditions: domestic short-hair, cat, pH 7.5
cat liver microsomes [4] = assay: as above; format: in vitro ADME; conditions: for Vmax, 7-OH-glucuronidation: pooled cat liver microsomes (n=5); for Rank of cat liver glucuronidation rate among species: pooled liver microsomes, 35 µM substrate, 13 species compared
[5] = for Urinary concentration, Unconjugated: without enzyme treatment, normalized to creatinine
[6] = Isoflavone glucuronidation assay, dog liver microsomes; format: in vitro ADME; conditions: mixed-breed, dog, pH 7.5
dog liver microsomes = assay: as above; format: in vitro ADME; conditions: pooled dog liver microsomes (n=16)
[7] = for Urinary concentration, Unconjugated: without enzyme treatment, normalized to creatinine; for % Glucuronides: percentage of free and conjugated isoflavones that are glucuronide
cat liver microsomes [8] = assay: Estradiol glucuronidation assay, cat liver microsomes; format: in vitro ADME; conditions: cat livers, 100 µM substrate
[9] = tested on: mongoose liver microsomes; assay: Estradiol glucuronidation assay, mongoose liver microsomes; format: in vitro ADME; conditions: mongoose livers, 100 µM substrate
ferret liver microsomes = assay: Estradiol glucuronidation assay, ferret liver microsomes; format: in vitro ADME; conditions: ferret livers, 100 µM substrate
[10] = dog, in vivo
[11] = in vivo
[12] = pooled liver microsomes, 35 µM substrate

Oc1ccc([C@H]2COc3cc(O)ccc3C2)cc1 [Equol, equol]
Vmax, 7-OH-glucuronidation (human liver microsomes): 17.4 ± 0.7 nmoles/min/mg protein | Km ([1]; pooled human liver microsomes): 31.8 ± 5.1 µM | 4'-OH-glucuronidation, detection [2, 12]: not detected in any of the species evaluated | 7-OH-glucuronidation, detection [2, 12]: detected in all species livers’ evaluated except for glucuronidation of equol by mongoose liver | Km ([3]; pooled cat liver microsomes): 132 ± 26 µM | Vmax, 7-OH-glucuronidation (cat liver microsomes [4]): 20.4 ± 1.4 nmoles/min/mg protein | Rank of cat liver glucuronidation rate among species (cat liver microsomes [4]): within the lowest three out of 13 species | Equol to daidzein ratio ([5]; individual dog urine samples with detectable equol (three of ten)): 0.004–0.017 | Urinary concentration, Unconjugated ([5]; pooled dog urine (n=10), mean): 0 pmoles / mg creatinine | Km ([6]; pooled dog liver microsomes): 32.6 ± 6.9 µM | Vmax, 7-OH-glucuronidation (dog liver microsomes): 14.3 ± 0.6 nmoles/min/mg protein

O=c1c(-c2ccc(O)cc2)coc2cc(O)cc(O)c12 [Genistein, genistein]
Vmax, 7-OH-glucuronidation (human liver microsomes): 1.60 ± 0.07 nmoles/min/mg protein | Km [1]: 11.7 ± 2.4 µM | Urinary concentration, Unconjugated ([7]; pooled cat urine (n=18), mean): 29 pmoles / mg creatinine | Glucuronidation at the 5-OH position ([2]; search for additional HPLC peaks with the same mass spectrum): no evidence for glucuronidation at that site | Km [3]: 10.3 ± 2.5 µM | Vmax, 7-OH-glucuronidation (cat liver microsomes [4]): 2.15 ± 0.1 nmoles/min/mg protein | Rank of cat liver glucuronidation rate among species (cat liver microsomes [4]): within the lowest three out of 13 species | Urinary concentration, Unconjugated ([5]; pooled dog urine (n=10), mean): 31 pmoles / mg creatinine | Km [6]: 15.3 ± 2.4 µM | Vmax, 7-OH-glucuronidation (dog liver microsomes): 5.13 ± 0.2 nmoles/min/mg protein

O=c1c(-c2ccc(O)cc2)coc2cc(O)ccc12 [Daidzein, daidzein]
Vmax, 7-OH-glucuronidation (human liver microsomes): 1.30 ± 0.05 nmoles/min/mg protein | Km ([1]; pooled human liver microsomes): 26.6 ± 5.1 µM | 4'-OH-glucuronidation, detection ([2]; 35 µM, pH 7.5): could not be measured in five of the 13 species | Km ([3]; pooled cat liver microsomes): 41.9 ± 6.6 µM | Vmax, 7-OH-glucuronidation (cat liver microsomes [4]): 1.61 ± 0.06 nmoles/min/mg protein | Rank of cat liver glucuronidation rate among species (cat liver microsomes [4]): within the lowest three out of 13 species | Km ([6]; pooled dog liver microsomes): 55.4 ± 3.8 µM | Vmax, 7-OH-glucuronidation (dog liver microsomes): 8.10 ± 0.1 nmoles/min/mg protein

Oc1ccc(C2=Cc3ccc(O)cc3OC2)cc1 [dehydroequol]
Detection of metabolite in urine ([7]; cat urine, before or after treatment with deconjugation enzymes): not detected | Detection of metabolite in urine ([5]; dog urine, before or after treatment with deconjugation enzymes): not detected

C[C@]12CC[C@@H]3c4ccc(O)cc4CC[C@H]3[C@@H]1CC[C@@H]2O [estradiol, β-estradiol]
Rank of estradiol glucuronidation among 13 species (cat liver microsomes [8]): sixth lowest | Rank of estradiol glucuronidation among 13 species [9]: fifth | Rank of estradiol glucuronidation among 13 species (ferret liver microsomes): third lowest

O=C1c2c(O)cc(O)cc2OCC1c1ccc(O)cc1 (stereo not drawn) [Dihydrogenistein, dihydrogenistein]
Urinary concentration, Glucuronides ([7]; pooled cat urine (n=18), after bovine liver β-glucuronidase treatment, mean): 0 pmoles / mg creatinine | % Glucuronides ([7]; pooled cat urine (n=18)): 0% | % Glucuronides ([7]; pooled cat urine (n=18), listed as dihydrogenistein): undetectable | Urinary concentration, Total ([7]; pooled cat urine (n=18), sum of free and conjugated concentrations, mean): 2998 pmoles / mg creatinine | Urinary concentration, Unconjugated ([7]; pooled cat urine (n=18), mean): 0 pmoles / mg creatinine | Urinary concentration, Glucuronides ([5]; pooled dog urine (n=10), after bovine liver β-glucuronidase treatment, mean): 631 pmoles / mg creatinine | % Glucuronides ([5]; pooled dog urine (n=10), percentage of free and conjugated isoflavones that are glucuronide): 33% | Urinary concentration, Total ([5]; pooled dog urine (n=10), sum of free and conjugated concentrations, mean): 1919 pmoles / mg creatinine | Urinary concentration, Unconjugated ([5]; pooled dog urine (n=10), mean): 0 pmoles / mg creatinine

CC(C(=O)c1ccc(O)cc1O)c1ccc(O)cc1 (stereo not drawn) [O-desmethylangolensin]
Detection of metabolite in urine [10]: not detected | Detection of metabolite in urine [11]: not detected

COc1cc2c(=O)c(-c3ccc(O)cc3)coc2cc1O [Glycitein, glycitein]
Urinary concentration, Unconjugated ([5]; pooled dog urine (n=10), mean): 9 pmoles / mg creatinine

CC(C(=O)c1c(O)cc(O)cc1O)c1ccc(O)cc1 (stereo not drawn) [6-hydroxy-O-desmethylangolensin]
Detection of metabolite in urine [10]: not detected | Detection of metabolite in urine [11]: not detected

— publication PMC4967369 (Xenobiotica; the fate of foreign compounds in biological …, 2015)
